Values quoted from earlier work in US20240105341A1, “SYSTEMS AND METHODS FOR ESTIMATING TUMOR GROWTH” (AMGEN INC., priority 2022, published 2024).
Like-named read-outs stand apart in the source and are kept apart here.

Legend:
[1] = system: metastatic, castration-resistant prostate cancer (mCRPC); conditions: FIRSTANA 2017, phase 3, chemo-naive
[2] = system: metastatic, castration-resistant prostate cancer (mCRPC); conditions: PREVAIL 2014, phase 3, chemo-naive

SMILES | CR (number of complete responders) [1] | Median PFS [1] | PR + CR (number of responders) [1] | CR (number of complete responders) [2] | PR + CR (number of responders) [2]
CO[C@H]1C(=O)[C@]2(C)[C@@H](OC)C[C@H]3OC[C@@]3(OC(C)=O)[C@H]2[C@H](OC(=O)c2ccccc2)[C@]2(O)C[C@H](OC(=O)[C@H](O)[C@@H](NC(=O)OC(C)(C)C)c3ccccc3)C(C)=C1C2(C)C [Caba20] | 1 | 4.4 | 61 | – | –
CC(=O)O[C@@]12CO[C@@H]1C[C@H](O)[C@@]1(C)C(=O)[C@H](O)C3=C(C)[C@@H](OC(=O)[C@H](O)[C@@H](NC(=O)OC(C)(C)C)c4ccccc4)C[C@@](O)([C@@H](OC(=O)c4ccccc4)[C@H]21)C3(C)C [Doce75] | 1 | 5.3 | 54 | – | –
CNC(=O)c1ccc(N2C(=S)N(c3ccc(C#N)c(C(F)(F)F)c3)C(=O)C2(C)C)cc1F [Enza] | – | – | – | 78 | 233
